The target of series [1] is T1, human 5-HT6 receptor (Homo sapiens (Human), UniProt P50406). In words: 5-HT6 radioligand binding assay (SPA format, [N-methyl-3H]-LSD). The following applies: human 5-HT6 receptor membranes, 10 nM [N-methyl-3H]-LSD, Ki by Cheng-Prusoff, read-out: human 5HT6 Ki. Put shortly: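 Human 5-HT6 receptor membranes were incubated overnight at room temperature with 10 nM [N-methyl-3H]-LSD and competitor in 50 mM Tris-HCl pH 7.5, 5 mM MgCl2, 1 mM EDTA, 4% DMSO, read by SPA. Nonspecific binding was defined with 100 μM 5-HT. IC50 came from ten-point duplicate curves; Ki via Cheng-Prusoff.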

Series [2] concerns the target T1, human 5-HT6 receptor. In words: Cell-based functional assay measuring cAMP production (HTRF). The following applies: for Emax: agonist mode, relative to 10 μM 5-HT Emax control, read-out: Emax (agonism); for functional activity at the human 5HT6 receptor: cell based assay. On the procedure: Compounds were further diluted to 4× assay concentrations with serum free media containing IBMX. […] Cells were lysed by addition of HTRFTM reagents (CisBio International) and after another 30 minute incubation, the plates were read on an AnalystGT (MDS) or SynergyHT (BioTek) microplate reader. […] Antagonist activity was expressed as the ratio of cAMP produced in a test well to the average cAMP produced in the EC80 challenge control wells. Agonist activity was determined after a full 30 minutes of incubation at room temperature, using 10 μM 5-HT as the Emax control. Cells were lysed by addition of HTRFTM reagents (CisBio International) and after another 30 minute incubation, the plates were read on an AnalystGT (MDS) or SynergyHT (BioTek) microplate reader. […] Agonist activity was expressed as the ratio of cAMP produced in a test well to the average cAMP produced in the Emax control wells. All cell-based experiments were performed in duplicate using ten concentrations of test compound with 5-HT (agonist mode) or a known antagonist (antagonist mode) included as additional controls in every run. […] For antagonists, the apparent dissociation constant (Kb) was calculated using a modified Cheng-Prusoff equation: Kb=IC50/([…][…])), where A=concentration of reference agonist in the assay and E[…]=EC50 value of the reference agonist.
(In general: cAMP levels reflect the balance of adenylyl cyclase and phosphodiesterase activity.)

Results on 20 compounds are retold here after patent publication US9067949B2, “Benzofuro[3,2-c] pyridines and related analogs as serotonin sub-type 6 (5-HT6) modulators for the treatment of obesity, metabolic syndrome, cognition and schizophrenia” (Albany Molecular Research, Inc., priority 2011, dated 2015).

In general, Ki refers to a measure of affinity in units of concentration, obtained from inhibition or displacement. A word on the melting point: it is the temperature of the solid-liquid transition. A word on the Emax: it is the greatest response seen or fitted, relative to the assay's reference.

The structures appear in SMILES notation. Read-outs that look alike come from different tables or passages of the source.

T1 sequence (P50406 whole entry): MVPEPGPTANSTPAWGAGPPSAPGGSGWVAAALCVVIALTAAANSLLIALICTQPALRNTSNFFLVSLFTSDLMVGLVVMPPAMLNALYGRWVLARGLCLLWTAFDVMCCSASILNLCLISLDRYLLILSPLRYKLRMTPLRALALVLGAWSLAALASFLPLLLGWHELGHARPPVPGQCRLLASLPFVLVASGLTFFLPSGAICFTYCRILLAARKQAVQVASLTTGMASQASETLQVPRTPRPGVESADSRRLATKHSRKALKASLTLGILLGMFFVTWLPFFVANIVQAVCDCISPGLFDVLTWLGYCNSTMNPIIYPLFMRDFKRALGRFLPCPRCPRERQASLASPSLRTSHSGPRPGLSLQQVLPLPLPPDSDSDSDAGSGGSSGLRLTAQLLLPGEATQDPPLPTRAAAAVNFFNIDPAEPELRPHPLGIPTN

Compound `Cl.O=S(=O)(c1cccc(Cl)c1)c1ccc2c3c(oc2c1)CCNC3` [Example 62, 7-(3-Chlorophenylsulfonyl)-1,2,3,4-tetrahydrobenzofuro[3,2-c]pyridine hydrochloride] registered a melting point of 288 to 292 °C. In addition, the Ki in series [1] was 1.7 nM.

`Cl.O=S(=O)(c1cccc(C(F)(F)F)c1)c1ccc2c3c(oc2c1)CCNC3` [Example 63, 7-(3-Trifluoromethylphenylsulfonyl)-1,2,3,4-tetrahydrobenzofuro[3,2-c]pyridine hydrochloride]: the melting point was 290 to 294 °C. Further, the inhibition constant (Ki) in series [1] is 2.1 nM.

Turning to `Cl.O=S(=O)(c1cccc(C(F)(F)F)c1)c1ccc2c3c(oc2c1)CC1CCC3N1` (stereo not drawn) [Example 64, 3-(3-Trifluoromethylphenyl)sulfonyl-6,7,8,9,10-pentahydro-7,10-epiminocyclohepta[b]benzofuran hydrochloride], the melting point is 178 to 183 °C. For the same compound, the Ki in series [1] was determined as 116 nM.

The compound `Cl.O=S(=O)(c1cccc(Cl)c1)c1ccc2c3c(oc2c1)CC1CCC3N1` (stereo not drawn) [Example 65, 3-(3-Chlorophenyl)sulfonyl-6,7,8,9,10-pentahydro-7,10-epiminocyclohepta[b]benzofuran hydrochloride] yielded a melting point of 193 to 197 °C. Also, the Ki in series [1] is 154 nM.

For `Cl.O=S(=O)(c1ccc2c3c(oc2c1)CC1CCC3N1)n1ccc2ccccc21` (stereo not drawn) [Example 67, 3-(1H-indol-1-yl)sulfonyl-6,7,8,9,10-pentahydro-7,10-epiminocyclohepta[b]benzofuran hydrochloride], the melting point is 192 to 196 °C. In series [1], the Ki stood at 34 nM.

The compound `Cl.O=S(=O)(c1ccccc1)c1ccc2c3c(oc2c1)CCCNC3` [Example 68, 8-(Phenylsulfonyl)-2,3,4,5-tetrahydro-1H-benzofuro[3,2-c]azepine hydrochloride] came in with a melting point of 221 to 225 °C. Further, the Ki in series [1] worked out at 132 nM.

`Cl.O=S(=O)(c1ccccc1)c1ccc2oc3c(c2c1)CNCCC3` [Example 69, 9-(Phenylsulfonyl)-2,3,4,5-tetrahydro-1H-benzofuro[3,2-c]azepine hydrochloride]: the melting point is 211 to 216 °C. Besides, the Ki in series [1] worked out at 571 nM.

The compound `Cl.O=S(=O)(c1ccccc1)c1cc(Cn2cccn2)c2oc3c(c2c1)CNCC3` [Example 75, 6-((1H-pyrazol-1-yl)methyl)-8-(phenylsulfonyl)-1,2,3,4-tetrahydrobenzofuro[3,2-c]pyridine hydrochloride] displayed a melting point of 145 to 148 °C. The Ki in series [1] was determined as 124 nM.

The compound `Cl.O=S(=O)(c1ccccc1)c1cc(CCO)c2oc3c(c2c1)CNCC3` [Example 79, 2-(8-(phenylsulfonyl)-1,2,3,4-tetrahydrobenzofuro[3,2-c]pyridin-6-yl)ethanol hydrochloride] showed a melting point of 239 to 240 °C. For the same compound, the Ki in series [1] is 4.3 nM.

With `CC(O)Cc1cc(S(=O)(=O)c2ccccc2)cc2c3c(oc12)CCNC3.Cl` (stereo not drawn) [Example 80, 1-(8-(phenylsulfonyl)-1,2,3,4-tetrahydrobenzofuro[3,2-c]pyridin-6-yl)propan-2-ol hydrochloride], the melting point lay within 283 to 284 °C. In series [1], the Ki is 19 nM.

As to `CC1(C)NCCc2oc3c(Cl)cc(S(=O)(=O)c4ccccc4)cc3c21.Cl` [Example 84, 6-chloro-1,1-dimethyl-8-(phenylsulfonyl)-1,2,3,4-tetrahydrobenzofuro[3,2-c]pyridine hydrochloride], the melting point is 282 to 287 °C (dec.). Also, the Ki in series [1] was 27 nM.

In turn, `Cl.O=S(=O)(c1ccccc1)c1cc(Cl)c2oc3c(c2c1)C(CO)NCC3` (stereo not drawn) [Example 85, (6-chloro-8-(phenylsulfonyl)-1,2,3,4-tetrahydrobenzofuro[3,2-c]pyridin-1-yl)methanol hydrochloride] showed a melting point of 185 to 187 °C. Also, the inhibition constant (Ki) in series [1] was determined as 1.6 nM.

Regarding `CC1CNCc2c1oc1c(Cl)cc(S(=O)(=O)c3ccccc3)cc21.Cl` (stereo not drawn) [Example 89, 6-chloro-4-methyl-8-(phenylsulfonyl)-1,2,3,4-tetrahydrobenzofuro[3,2-c]pyridine hydrochloride], the melting point was 291 to 292 °C (dec.). The Ki in series [1] was determined as 110 nM.

In the case of `Cl.Clc1cc(Sc2ccccc2)cc2c3c(oc12)CCNC3` [Example 91, 6-chloro-8-(phenylthio)-1,2,3,4-tetrahydrobenzofuro[3,2-c]pyridine hydrochloride], the melting point was 241 to 248 °C (dec.). In addition, in series [1], the Ki was found to be 12 nM.

Consider `Cl.[O-][S+](c1ccccc1)c1cc(Cl)c2oc3c(c2c1)CNCC3` (stereo not drawn) [Example 93, 6-chloro-8-(phenylsulfinyl)-1,2,3,4-tetrahydrobenzofuro[3,2-c]pyridine hydrochloride], for which the melting point was 264 to 272 °C (dec.). Further, the Ki in series [1] (hydrochloride) was determined as 10 nM.

Regarding `Cl.OC(c1ccccc1)c1cc(Cl)c2oc3c(c2c1)CNCC3` (stereo not drawn) [Example 94, (6-chloro-1,2,3,4-tetrahydrobenzofuro[3,2-c]pyridin-8-yl)(phenyl)methanol hydrochloride], the melting point is 260 °C (dec.). For the same compound, the Ki in series [1] came out at 143 nM.

For the compound `CC(c1ccccc1)c1cc(Cl)c2oc3c(c2c1)CNCC3.Cl` (stereo not drawn) [Example 95, 6-chloro-8-(1-phenylethyl)-1,2,3,4-tetrahydrobenzofuro[3,2-c]pyridine hydrochloride], the melting point was 245 to 255 °C (dec.). Besides, in series [1], the Ki was 7.5 nM.

In the case of `COc1cc(Cc2ccccc2)cc2c3c(oc12)CCNC3.Cl` [Example 96, 8-benzyl-6-methoxy-1,2,3,4-tetrahydrobenzofuro[3,2-c]pyridine hydrochloride], the melting point lay in the range of 263 to 265 °C. Moreover, in series [1], the Ki amounted to 4.9 nM.

`Cl.O=S(=O)(c1ccc(C(F)(F)F)cc1)c1cc(Cl)c2oc3c(c2c1)CNCC3` [Example 111]: in series [1], the Ki stood at 3.3 nM. Further, in series [2], the Emax was determined as 27% and the “functional activity at the human 5HT6 receptor” value is “weak partial agonists”.

With `Cl.O=S(=O)(c1ccc(OC(F)(F)F)cc1)c1cc(Cl)c2oc3c(c2c1)CNCC3` [Example 112], in series [1], the Ki was 4.9 nM. Besides, in series [2], the Emax is 19% and the “functional activity at the human 5HT6 receptor” value is “weak partial agonists”.
